Test results: patent US20260219274A1, “POLYOL SWEETNERS AND CARDIOVASCULAR AND THROMBOTIC EVENT RISK” (THE CLEVELAND CLINIC FOUNDATION, priority 2023, published 2026)

Experiments:
[1] = test system: stable subjects undergoing elective diagnostic cardiac evaluation (Validation / US cohort); set-up: species or system human; conditions: in vivo
Excerpt: Our second clinical study employed an independent non-overlapping Validation Cohort, where we employed quantitative stable isotope dilution liquid chromatography tandem mass spectrometry (LC-MS/MS) to determine xylitol levels in serum samples from 2,149 patients (non-overlapping from GeneBank at the Cleveland Clinic; clinicaltrials.gov identifier: NCT0059020).^35-36
In both, the Discovery and Validation Cohorts, Major Adverse Cardiovascular Events (MACE) were defined as death, nonfatal myocardial infarction, or nonfatal cerebrovascular accident (stroke) during follow-up. Adjudicated long term survival data were collected through medical records review and Social Security Death Index query. Cardiovascular disease (CVD) was indicated as presence of peripheral artery disease or coronary artery disease, indicated as any clinical history of myocardial infarction, coronary revascularization (including percutaneous coronary intervention, coronary artery bypass surgery), or angiographic evidence of significant stenosis (≥50%) in 1 or more major coronary arteries. Estimated glomerular filtration rate (eGFR) in both cohorts was calculated based on the recent Chronic Kidney Disease Epidemiology Collaboration 2021 CKD-EPI Creatinine equation.^37 Platelet-related hematology analyses were performed with an Advia 120 hematology analyzer (Siemens, New York, NY).^38 Use of anti-platelet agents (=1556) was defined as either aspirin or a P2Y12 agent or both. All observational studies in this example are reported in compliance with the STrengthening the Reporting of Observational studies in Epidemiology (STROBE)-Statement.^39 Information on gender of study participants of the Discovery and Validation Cohorts is reported in Table 1-3.
Stable-isotope-dilution LC-MS/MS was developed to specifically quantify xylitol in human and mouse plasma, urine and feces (fecal pellets were dissolved in water and supernatant subjected to LC-MS/MS). Accuracy and precision of the method to quantify xylitol (separated from its structural isomers arabitol and rabitol) were assessed by a standard addition method 4 of pure synthetic standard into three different plasma pools. Accuracy was 2.4-2.8%, and intra- and inter-day coefficients of variation (CVs), were 1.2-8.9% and 10.9-11.5%, respectively. Urine creatinine was similarly analyzed by stable-isotope-dilution LC-MS/MS using D3-creatinine as internal standard as previously described.^47 Erythritol was quantified by stable-isotope-dilution LC-MS/MS as previously described.^19 Details for all assays can be found in the additional methods.
Continuous variables are summarized as median (interquartile range [IQR]), and categorical variables are presented as %. […]

C57BL/6J mice = experiment: Carotid artery FeCl3 injury thrombosis model; format: in vivo; conditions: for rate of clot / thrombus formation / time to cessation of blood flow following arterial injury: 25 mg/kg i.p. vs vehicle (saline)
Protocol: Mice were used to causally test whether elevation in xylitol plasma levels results in enhancement in thrombosis potential. All mice were C57BL/6J and 12-14 weeks of age. All animal studies were approved by the Institutional Animal Care and Use Committee at the Cleveland Clinic (IRB 2019-2251).
The FeCl3-induced carotid artery injury model was performed using intravital fluorescence microscopy with continuous image capture monitoring, as previously described.^44 Time to cessation of blood flow through thrombus formation for all experiments was determined by visual inspection by two independent investigators.
The FeCl3-induced carotid artery injury model was performed as previously described.^9 BL/6J mice, both male and female, 12-14 weeks of age, were i.p. injected with vehicle (saline) or xylitol (25 mg/kg). The animals were anesthetized with 100 mg/kg ketamine+10 mg/kg xylazine and rhodamine 6G (100 μL; 0.5 mg/mL, catalogue #252433, Sigma, St. Louis, MO, USA) was injected into the right jugular vein for platelet labeling. The left carotid artery was then exposed, and an injury induced using a 1 mm^2 Whatman filter paper containing 10% FeCl3 (Catalogue #157740, Sigma, St. Louis, MO, USA) for 1 min. Thrombus formation in real time was monitored using intravital fluorescence microscopy equipped with video recording. Time to cessation of blood flow through thrombus formation for all experiments was determined by visual inspection by two independent investigators and animals were immediately euthanized after data acquisition.
The common carotid artery FeCl3 induced injury model was performed as previously described^54. 12-14 weeks old BL/6J mice were injected with vehicle (normal saline), erythritol (25 mg/kg) or 1,5-AHG (25 mg/kg) and anesthetized with 100 mg/kg ketamine+10 mg/kg xylazine. Rhodamine 6G (100 μL; 0.5 mg/mL, catalogue #252433, Sigma, St. Louis, MO, USA) was injected into the right jugular vein to label platelets. The left carotid artery was then injured with a Whatman filter paper of 1 mm^2 size containing 10% FeCl3 (Catalogue #157740, Sigma, St. Louis, MO, USA) for 1 min. Intravital fluorescence microscopy equipped with video recording was used to monitor thrombus formation in real time. Time to cessation of blood flow through clot formation for all studies was determined by visual inspection of captured video by two independent investigators in real time. Data for the in vivo thrombosis were collected by Streampix 7—Multiple Camera DVR Software (NorPix Inc, Montreal, Canada). Animals were immediately euthanized after data acquisition.

[2] = cited from earlier work

SMILES	HR [95% CI] incident event risk [1]	HR with 95% CI [1]	adjusted HR [95% CI] incident MACE [1]	rate of clot / thrombus formation (C57BL/6J mice)	time to cessation of blood flow following arterial injury (C57BL/6J mice)	well tolerated daily dose ([2]; digestive tolerance)	effect on blood sugar / insulin ([2]; in vivo)	metabolism and excretion upon ingestion ([2]; in vivo)	HR [95% CI] for incident (3 year) MACE [1]	plasma xylitol level at which heightened thrombosis potential was observed (C57BL/6J mice; animal model of thrombosis (FIG. 4B)) [µM]
OC[C@@H](O)[C@@H](O)CO [erythritol]	2.64 [1.79-3.90]	1.21 (1.12-1.31)	1.80 [1.18-2.77]	marked enhancement	significant reduction	up to 1 g/kg	no short-term insulinemic or glycemic effects	poorly metabolized and mostly excreted in the urine		
OC[C@@H](O)[C@H](O)[C@@H](O)CO [xylitol]				marked increase	significant reduction		negligible impact		2.31 [1.52-3.52]	19
